Counter-ions that a name gives are not always drawn. Like-named read-outs stand apart in the source and are kept apart here.
Test system: SARS-CoV-2 (USA-WA1/2020) in Calu-3 cells
Type: cell-based
[1] = high dose (10 µM), Calu-3, 48 h
[2] = low dose (100 nM), Calu-3, 48 h

| Structure (SMILES) | dsRNA signal, AU High [1] | dsRNA signal, AU Low [2] | Reduction of infection in representative images (Figure 4A) | dsRNA signal, AU High | dsRNA signal, AU Low |
| --- | --- | --- | --- | --- | --- |
| C[C@@H]1O[C@@H](OC[C@H]2O[C@@H](Oc3cc(O)c4c(=O)cc(-c5ccc(O)cc5)oc4c3)[C@H](O[C@@H]3O[C@@H](C)[C@H](O)[C@@H](O)[C@H]3O)[C@@H](O)[C@@H]2O)[C@H](O)[C@H](O)[C@H]1O [Ligustroflavone] | 4049.2 AU | 6040.1 AU |  |  |  |
| Cc1c(F)cc(C(=O)NC2CC2)cc1-c1ccc(C(=O)NCC(C)(C)C)cn1 [Losmapimod, reference compound] |  |  | poor activity |  |  |
| Cn1cnc2c(F)c(Nc3ccc(Br)cc3F)c(C(=O)NOCCO)cc21 [MEK162 (ARRY-162, ARRY-438162)] | 32104.0 AU | 54835.5 AU |  |  |  |
| COCCNCc1ccc(-c2cc3nccc(Oc4ccc(NC(=S)NC(=O)Cc5ccc(F)cc5)cc4F)c3s2)nc1 [MGCD-265] | 4249.4 AU | 42710.5 AU |  |  |  |
| O=[N+]([O-])c1ccc(Nc2nc(N3CCOCC3)nc(N3CCOCC3)n2)cc1 [MHY1485] | 4962.4 AU | 35655.5 AU |  |  |  |
| CN(C[C@@H]1COCCO1)S(=O)(=O)Nc1ccc2ccc3ncc(-c4cnn(C)c4)cc3c(=O)c2c1 [MK-2461] | 19211.6 AU | 2226.3 AU |  |  |  |
| O=C(O)[C@]1(Cc2cccc(Nc3nccs3)n2)CC[C@@H](Oc2cccc(Cl)c2F)CC1 [MK-5108 (VX-689)] | 3258.6 AU | 34308.8 AU |  |  |  |
| COc1ccc(-c2cnc3c(-c4cccc5ncccc45)cnn3c2)cc1 [ML347] | 0.0 AU | 58224.3 AU |  |  |  |
| Cl.O=S(=O)(c1cccc2c(I)cccc12)N1CCCNCC1 [ML-7 hydrochloride] | 19324.6 AU | 18346.9 AU |  |  |  |
| COc1c(Cl)cc2c([nH]c3cnccc32)c1NC(=O)c1cccnc1C [MLN120B] | 3021.2 AU | 0.0 AU |  |  |  |
| O=C(O)c1ccc(Nc2ncc3c(n2)-c2ccc(Cl)cc2C(c2c(F)cccc2F)=NC3)cc1 [MLN8054] | 4632.4 AU | 9929.7 AU |  |  |  |
| COc1cc(Nc2ncc3c(n2)-c2ccc(Cl)cc2C(c2c(F)cccc2OC)=NC3)ccc1C(=O)O [MLN8237 (Alisertib)] | 9976.5 AU | 32491.8 AU |  |  |  |
| O=[N+]([O-])/C=C/c1ccc2c(c1)OCO2 [MNS] | 1958.5 AU | 51870.8 AU |  |  |  |
| CCc1ccc(C(=O)COc2ccc(CC3SC(=O)NC3=O)cc2)nc1 (stereo not shown) [MSDC-0160] | 16528.8 AU | 15455.5 AU |  |  |  |
| Nc1ccc(O)c(C(=O)O)c1 [Mesalamine] | 17187.6 AU | 2129.6 AU |  |  |  |
| CN(C)C(=N)N=C(N)N [Metformin HCl] | 10385.6 AU | 10840.1 AU |  |  |  |
| Cc1cc(=O)[nH]c(=S)[nH]1 [Methylthiouracil] | 61524.3 AU | 55636.1 AU |  |  |  |
| CCCCCCCCCCCCCCCCOP(=O)([O-])OCC[N+](C)(C)C [Miltefosine] | 27276.6 AU | 36330.6 AU |  |  |  |
| O=C1c2c(O)ccc(O)c2C(=O)c2c(NCCNCCO)ccc(NCCNCCO)c21 [Mitoxantrone HCl] | 48235.0 AU | 23848.1 AU |  |  |  |
| COC(=O)c1c2c(c3ccccc3c1O)OC(C)(C)C=C2 [Mollugin] | 394.8 AU | 5157.1 AU |  |  |  |

| Structure (SMILES) | dsRNA signal, AU High [1] | dsRNA signal, AU Low [2] | Reduction of infection in representative images (Figure 4A) | dsRNA signal, AU High | dsRNA signal, AU Low |
| --- | --- | --- | --- | --- | --- |
| COc1cc(N2CCC(O)CC2)ccc1Nc1cc(Nc2ccccc2S(=O)(=O)C(C)C)c2cc[nH]c2n1 [Mps1-IN-1] | 7290.6 AU | 34349.9 AU |  |  |  |
| FC(F)(F)c1ccc(/C=C/c2nc(COc3ccc(CCCCn4ccnn4)cc3)co2)cc1 [Mubritinib (TAK 165)] |  |  |  | 19342.6 | 48533.2 |
| CC(=O)NCCc1c[nH]c2ccc(O)cc12 [N-Acetylserotonin] | 219.3 AU | 53222.8 AU |  |  |  |
| O=[N+]([O-])c1ccc(Sc2cccc[n+]2[O-])c2nonc12 [NSC228155] | 18547.9 AU | 54998.4 AU |  |  |  |
| CCN(CC)CCCC(C)Nc1nc(C)cc(Nc2ccc3nc(C)cc(N)c3c2)n1 (stereo not shown) [NSC 23766] | 10192.1 AU | 15408.3 AU |  |  |  |
| Oc1cc(CNC(=S)/C=C/c2cc(O)c(O)c(Br)c2)cc(O)c1O [NT157] | 7372.8 AU | 11852.6 AU |  |  |  |
| O=C(Nc1nc2ccc(NC(=O)C34CC5CC(CC(C5)C3)C4)cc2s1)c1ccccc1 [NVP 231] | 1973.6 AU | 14037.2 AU |  |  |  |
| Nc1ncnc2c1c(-c1cccc(OCc3ccccc3)c1)cn2[C@H]1C[C@@H](CN2CCC2)C1 [NVP-AEW541] | 1274.0 AU | 19640.6 AU |  |  |  |
| Cl.Nc1cc(C(F)(F)F)c(-c2cc(N3CCOCC3)nc(N3CCOCC3)n2)cn1 [NVP-BKM120 Hydrochloride] | 0.0 AU | 56514.5 AU |  |  |  |
| Fc1cc(-c2cccc3ncc(-c4cnn(C5CCNCC5)c4)nc23)cc(F)c1CN1CCOCC1 [NVP-BSK805 2HCl] | 1810.2 AU | 2038.5 AU |  |  |  |
| Cn1cc(-c2ccc3ncc(Cc4ccc5ncccc5c4)n3n2)cn1 [NVP-BVU972] | 9035.4 AU | 52705.1 AU |  |  |  |
| CS(=O)(=O)N1CCC(NC(=O)c2[nH]ncc2NC(=O)c2c(Cl)cccc2Cl)CC1 [NVP-LCQ195] | 6040.0 AU | 35350.1 AU |  |  |  |
| CN1C(=O)C(Cc2c[nH]c3ccccc23)NC1=S (stereo not shown) [Necrostatin-1] | 12590.5 AU | 10276.4 AU |  |  |  |
| CCOc1cc2ncc(C#N)c(Nc3ccc(OCc4ccccn4)c(Cl)c3)c2cc1NC(=O)/C=C/CN(C)C [Neratinib (HKI-272)] | 1101.0 AU | 11881.7 AU |  |  |  |
| Cc1cn(-c2cc(NC(=O)c3ccc(C)c(Nc4nccc(-c5cccnc5)n4)c3)cc(C(F)(F)F)c2)cn1.Cl.O [Nilotinib monohydrochloride monohydrate] | 2759.7 AU | 14574.2 AU |  |  |  |
| Cc1cn(-c2cc(NC(=O)c3ccc(C)c(Nc4nccc(-c5cccnc5)n4)c3)cc(C(F)(F)F)c2)cn1 [Nilotinib(AMN-107)] | 28653.4 AU | 33622.0 AU |  |  |  |
| Nc1nc(N)c(N=O)c(OCC2CCCCC2)n1 [Nu 6027] | 2596.9 AU | 10731.2 AU |  |  |  |
| NCC(=O)Nc1ccc(-n2nc(C(F)(F)F)cc2-c2ccc3c(ccc4ccccc43)c2)cc1 [OSU-03012 (AR-12)] | 17565.3 AU | 17813.3 AU |  |  |  |
| CC1(C)OC(=O)C=C[C@]2(C)[C@H]3CC[C@@]4(C)[C@H](c5ccoc5)OC(=O)[C@H]5O[C@]54[C@]3(C)C(=O)C[C@@H]12 [Obacunone] | 22534.9 AU | 63087.7 AU |  |  |  |
| C=C1C(=O)[C@]23[C@H](O)[C@H]1CC[C@H]2[C@@]12CO[C@]3(O)[C@@H](O)[C@@H]1C(C)(C)CC[C@@H]2O [Oridonin] | 6061.2 AU | 25375.1 AU |  |  |  |

— PMC12142043, “Cell-based high-content approach for SARS-CoV-2 neutralization identifies unique monoclonal antibodies and PI3K pathway inhibitors” (Frontiers in Cell and Developmental Biology, 2025)
